Measured values as given in patent publication US20040259866A1, “Calcium channel blockers comprising two benzhydril moieties” (priority 1998, published 2004).
Like-named read-outs stand apart in the source and are kept apart here.

What was measured:
[1] = molecular target: T1, human α1G subunits (T-type channels) (Homo sapiens, UniProt O43497); experiment: Block of α1G T-type channels, patch clamp in HEK cell lines (Example 8); format: cell-based
T1 construct: expressed in transfected cells
Method: Standard patch-clamp techniques were employed to identify blockers of T-type currents. Briefly, previously described HEK cell lines stably expressing human α1G subunits were used for all the recordings (passage #: 4-20, 37° C., 5% CO2). To obtain T-type currents, plastic dishes containing semi-confluent cells were positioned on the stage of a ZEISS AXIOVERT S100 microscope after replacing the culture medium with external solution (see below). Whole-cell patches were obtained using pipettes (borosilicate glass with filament, O.D.: 1.5 mm, I.D.: 0.86 mm, 10 cm length), fabricated on a SUTTER P-97 puller with resistance values of ˜5 MΩ (see below for internal medium).
In the non-inactivating protocol, the holding potential is set at −110 mV and with a pre-pulse at −100 mV for 1 second prior to the test pulse at −40 mV for 50 ms; in the inactivation protocol, the pre-pulse is at approximately −85 mV for 1 second, which inactivates about 15% of the T-type channels, as shown below. [formula]
Test compounds were dissolved in external solution, 0.1-0.01% DMSO. After ˜10 min rest, they were applied by gravity close to the cell using a WPI microfil tubing. The “non-inactivated” pre-pulse was used to examine the resting block of a compound. The “inactivated” protocol was employed to study voltage-dependent block, but the initial data shown below were mainly obtained using the non-inactivated protocol only. IC50 values are shown for various compounds of the invention in Table 5.

[2] = molecular target: T2, rat α1B+α2b+β1b channels (N-type channels) (Rattus norvegicus, UniProt Q02294); experiment: Block of α1B N-type channels, whole cell patch recordings (Example 6); format: cell-based; conditions: HEK 293, 5 mM barium as charge carrier
T2 construct: expressed in transfected cells
T2 sequence (Q02294 whole entry): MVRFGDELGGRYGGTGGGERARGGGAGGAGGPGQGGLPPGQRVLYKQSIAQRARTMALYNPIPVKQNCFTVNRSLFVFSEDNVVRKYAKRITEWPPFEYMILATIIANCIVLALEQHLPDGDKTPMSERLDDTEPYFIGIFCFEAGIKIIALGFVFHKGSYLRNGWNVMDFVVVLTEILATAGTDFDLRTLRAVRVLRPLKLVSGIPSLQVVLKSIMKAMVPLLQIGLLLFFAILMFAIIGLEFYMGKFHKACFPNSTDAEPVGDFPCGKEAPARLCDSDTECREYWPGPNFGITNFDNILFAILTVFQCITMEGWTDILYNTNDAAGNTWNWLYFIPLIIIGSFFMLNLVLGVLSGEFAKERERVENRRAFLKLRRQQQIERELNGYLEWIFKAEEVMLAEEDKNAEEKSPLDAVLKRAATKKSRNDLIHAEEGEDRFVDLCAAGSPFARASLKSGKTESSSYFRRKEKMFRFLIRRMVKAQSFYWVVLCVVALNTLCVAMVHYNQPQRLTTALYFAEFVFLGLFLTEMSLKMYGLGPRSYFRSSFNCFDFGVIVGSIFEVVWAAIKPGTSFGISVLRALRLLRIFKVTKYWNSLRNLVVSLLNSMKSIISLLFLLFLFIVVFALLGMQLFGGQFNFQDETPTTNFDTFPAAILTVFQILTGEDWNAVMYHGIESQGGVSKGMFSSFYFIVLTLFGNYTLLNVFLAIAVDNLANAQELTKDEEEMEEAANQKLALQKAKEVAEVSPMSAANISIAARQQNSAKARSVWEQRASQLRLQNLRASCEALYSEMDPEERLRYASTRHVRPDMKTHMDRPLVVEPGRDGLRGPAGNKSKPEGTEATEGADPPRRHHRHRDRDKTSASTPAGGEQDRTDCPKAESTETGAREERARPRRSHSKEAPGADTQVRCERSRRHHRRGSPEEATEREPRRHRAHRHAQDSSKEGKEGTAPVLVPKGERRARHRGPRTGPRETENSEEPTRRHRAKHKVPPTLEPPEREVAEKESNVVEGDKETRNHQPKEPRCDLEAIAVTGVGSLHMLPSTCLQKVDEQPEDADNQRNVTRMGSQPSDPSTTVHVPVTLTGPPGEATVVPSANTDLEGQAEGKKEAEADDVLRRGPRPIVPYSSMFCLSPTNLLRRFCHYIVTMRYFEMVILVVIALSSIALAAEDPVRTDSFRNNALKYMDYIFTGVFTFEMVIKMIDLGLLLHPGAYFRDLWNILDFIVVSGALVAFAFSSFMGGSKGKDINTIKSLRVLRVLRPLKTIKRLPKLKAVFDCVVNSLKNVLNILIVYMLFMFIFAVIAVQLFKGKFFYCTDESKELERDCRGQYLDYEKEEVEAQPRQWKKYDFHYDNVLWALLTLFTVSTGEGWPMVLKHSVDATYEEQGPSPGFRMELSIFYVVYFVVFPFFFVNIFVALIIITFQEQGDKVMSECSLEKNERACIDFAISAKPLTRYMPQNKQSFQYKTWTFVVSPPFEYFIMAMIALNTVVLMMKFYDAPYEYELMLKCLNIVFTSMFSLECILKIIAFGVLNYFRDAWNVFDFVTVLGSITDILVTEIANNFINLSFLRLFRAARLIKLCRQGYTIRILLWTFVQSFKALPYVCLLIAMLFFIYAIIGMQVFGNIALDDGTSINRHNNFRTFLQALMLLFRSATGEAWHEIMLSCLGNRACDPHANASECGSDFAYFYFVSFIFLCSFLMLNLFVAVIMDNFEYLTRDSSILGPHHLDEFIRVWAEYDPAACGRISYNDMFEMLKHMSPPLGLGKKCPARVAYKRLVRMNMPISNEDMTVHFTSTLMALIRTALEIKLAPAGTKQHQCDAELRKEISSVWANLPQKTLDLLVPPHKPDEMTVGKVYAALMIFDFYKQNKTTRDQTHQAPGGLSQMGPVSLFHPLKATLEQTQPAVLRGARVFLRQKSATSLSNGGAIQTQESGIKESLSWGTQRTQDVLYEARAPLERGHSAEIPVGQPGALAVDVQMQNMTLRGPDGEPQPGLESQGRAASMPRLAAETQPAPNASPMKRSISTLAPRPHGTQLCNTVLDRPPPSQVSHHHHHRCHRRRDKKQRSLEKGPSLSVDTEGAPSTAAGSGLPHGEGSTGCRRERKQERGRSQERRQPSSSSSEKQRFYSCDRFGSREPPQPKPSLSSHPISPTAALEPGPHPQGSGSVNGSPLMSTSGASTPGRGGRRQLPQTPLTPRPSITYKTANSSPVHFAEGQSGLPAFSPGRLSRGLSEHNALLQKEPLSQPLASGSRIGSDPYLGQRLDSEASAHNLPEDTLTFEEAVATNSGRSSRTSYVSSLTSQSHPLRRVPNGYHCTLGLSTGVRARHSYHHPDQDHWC
Method: Antagonist activity was measured using whole cell patch recordings on human embryonic kidney cells either stably or transiently expressing rat α1B+α2b+β1b channels (N-type channels) with 5 mM barium as a charge carrier.
For transient expression, host cells, such as human embryonic kidney cells, HEK 293 (ATCC# CRL 1573) were grown in standard DMEM medium supplemented with 2 mM glutamine and 10% fetal bovine serum. HEK 293 cells were transfected by a standard calcium-phosphate-DNA coprecipitation method using the rat α1B+β1b+α2δ N-type calcium channel subunits in a vertebrate expression vector (for example, see Current Protocols in Molecular Biology).
After an incubation period of from 24 to 72 hrs the culture medium was removed and replaced with external recording solution (see below). Whole cell patch clamp experiments were performed using an Axopatch 200B amplifier (Axon Instruments, Burlingame, Calif.) linked to an IBM compatible personal computer equipped with pCLAMP software. Borosilicate glass patch pipettes (Sutter Instrument Co., Novato, Calif.) were polished (Microforge, Narishige, Japan) to a resistance of about 4 MΩ when filled with cesium methanesulfonate internal solution (composition in MM: 109 CsCH3SO4, 4 MgCl2, 9 EGTA, 9 HEPES, pH 7.2). Cells were bathed in 5 mM Ba^++ (in mM: 5 BaCl2, 1 MgCl2, 10 HEPES, 40 tetraethylammonium chloride, 10 glucose, 87.5 CsCl pH 7.2). […] Drugs were perfused directly into the vicinity of the cells using a microperfusion system.
Normalized dose-response curves were fit (Sigmaplot 4.0, SPSS Inc., Chicago, Ill.) by the Hill equation to determine IC50 values. Steady-state inactivation curves were plotted as the normalized test pulse amplitude following 5 s inactivating prepulses at +10 mV increments. Inactivation curves were fit (Sigmaplot 4.0) with the Boltzman equation, Ipeak (normalized)=1/(1+exp((V-Vh)z/25.6)), where V and Vh are the conditioning and half inactivation potentials, respectively, and z is the slope factor.
Using the procedure set forth above, various compounds of the invention were tested for their ability to block N-type calcium channels.

[3] = test system: rat formalin model; experiment: Formalin-induced pain model; format: in vivo; conditions: 30 mg/kg IP, 10 minutes prior to formalin, saline control=100%
Method: The effects of intrathecally delivered compounds of the invention on the rat formalin model were measured. The compounds were reconstituted to stock solutions of approximately 10 mg/ml in propylene glycol. Eight Holtsman male rats of 275-375 g size were randomly selected per test compound.
The following study groups were used, with test compounds, vehicle control (propylene glycol) and saline delivered intraperitoneally (IP):
Prior to initiation of drug delivery baseline behavioral and testing data were taken.
On the morning of testing, a small metal band (0.5 g) was loosely placed around the right hind paw. The rat was placed in a cylindrical Plexiglas chamber for adaptation a minimum of 30 minutes. Test compound or vehicle control was administered 10 minutes prior to formalin injection (50 μl of 5% formalin) into the dorsal surface of the right hindpaw of the rat. The animal was then placed into the chamber of the automated formalin apparatus where movement of the formalin injected paw was monitored and the number of paw flinches tallied by minute over the next 60 minutes. (See Malmberg, A. M., and Yaksh, T. L., Anesthesiology (1993) 79:270-281.)
Results are presented as Maximum Possible Effect±SEM, where saline control=100%.

[4] = 100 mV (non-inactivating protocol), read-out: Block of α1G T-type Channels IC50, 100 mV
[5] = 0.067 Hz, read-out: Block of α1B N-type Channels IC50, 0.067 Hz
[6] = 0.2 Hz, read-out: Block of α1B N-type Channels IC50, 0.2 Hz
[7] = 80 mV (inactivation protocol), read-out: Block of α1G T-type Channels IC50, 80 mV
[8] = 100 mV (non-inactivating protocol)

T1 sequence (O43497 whole entry): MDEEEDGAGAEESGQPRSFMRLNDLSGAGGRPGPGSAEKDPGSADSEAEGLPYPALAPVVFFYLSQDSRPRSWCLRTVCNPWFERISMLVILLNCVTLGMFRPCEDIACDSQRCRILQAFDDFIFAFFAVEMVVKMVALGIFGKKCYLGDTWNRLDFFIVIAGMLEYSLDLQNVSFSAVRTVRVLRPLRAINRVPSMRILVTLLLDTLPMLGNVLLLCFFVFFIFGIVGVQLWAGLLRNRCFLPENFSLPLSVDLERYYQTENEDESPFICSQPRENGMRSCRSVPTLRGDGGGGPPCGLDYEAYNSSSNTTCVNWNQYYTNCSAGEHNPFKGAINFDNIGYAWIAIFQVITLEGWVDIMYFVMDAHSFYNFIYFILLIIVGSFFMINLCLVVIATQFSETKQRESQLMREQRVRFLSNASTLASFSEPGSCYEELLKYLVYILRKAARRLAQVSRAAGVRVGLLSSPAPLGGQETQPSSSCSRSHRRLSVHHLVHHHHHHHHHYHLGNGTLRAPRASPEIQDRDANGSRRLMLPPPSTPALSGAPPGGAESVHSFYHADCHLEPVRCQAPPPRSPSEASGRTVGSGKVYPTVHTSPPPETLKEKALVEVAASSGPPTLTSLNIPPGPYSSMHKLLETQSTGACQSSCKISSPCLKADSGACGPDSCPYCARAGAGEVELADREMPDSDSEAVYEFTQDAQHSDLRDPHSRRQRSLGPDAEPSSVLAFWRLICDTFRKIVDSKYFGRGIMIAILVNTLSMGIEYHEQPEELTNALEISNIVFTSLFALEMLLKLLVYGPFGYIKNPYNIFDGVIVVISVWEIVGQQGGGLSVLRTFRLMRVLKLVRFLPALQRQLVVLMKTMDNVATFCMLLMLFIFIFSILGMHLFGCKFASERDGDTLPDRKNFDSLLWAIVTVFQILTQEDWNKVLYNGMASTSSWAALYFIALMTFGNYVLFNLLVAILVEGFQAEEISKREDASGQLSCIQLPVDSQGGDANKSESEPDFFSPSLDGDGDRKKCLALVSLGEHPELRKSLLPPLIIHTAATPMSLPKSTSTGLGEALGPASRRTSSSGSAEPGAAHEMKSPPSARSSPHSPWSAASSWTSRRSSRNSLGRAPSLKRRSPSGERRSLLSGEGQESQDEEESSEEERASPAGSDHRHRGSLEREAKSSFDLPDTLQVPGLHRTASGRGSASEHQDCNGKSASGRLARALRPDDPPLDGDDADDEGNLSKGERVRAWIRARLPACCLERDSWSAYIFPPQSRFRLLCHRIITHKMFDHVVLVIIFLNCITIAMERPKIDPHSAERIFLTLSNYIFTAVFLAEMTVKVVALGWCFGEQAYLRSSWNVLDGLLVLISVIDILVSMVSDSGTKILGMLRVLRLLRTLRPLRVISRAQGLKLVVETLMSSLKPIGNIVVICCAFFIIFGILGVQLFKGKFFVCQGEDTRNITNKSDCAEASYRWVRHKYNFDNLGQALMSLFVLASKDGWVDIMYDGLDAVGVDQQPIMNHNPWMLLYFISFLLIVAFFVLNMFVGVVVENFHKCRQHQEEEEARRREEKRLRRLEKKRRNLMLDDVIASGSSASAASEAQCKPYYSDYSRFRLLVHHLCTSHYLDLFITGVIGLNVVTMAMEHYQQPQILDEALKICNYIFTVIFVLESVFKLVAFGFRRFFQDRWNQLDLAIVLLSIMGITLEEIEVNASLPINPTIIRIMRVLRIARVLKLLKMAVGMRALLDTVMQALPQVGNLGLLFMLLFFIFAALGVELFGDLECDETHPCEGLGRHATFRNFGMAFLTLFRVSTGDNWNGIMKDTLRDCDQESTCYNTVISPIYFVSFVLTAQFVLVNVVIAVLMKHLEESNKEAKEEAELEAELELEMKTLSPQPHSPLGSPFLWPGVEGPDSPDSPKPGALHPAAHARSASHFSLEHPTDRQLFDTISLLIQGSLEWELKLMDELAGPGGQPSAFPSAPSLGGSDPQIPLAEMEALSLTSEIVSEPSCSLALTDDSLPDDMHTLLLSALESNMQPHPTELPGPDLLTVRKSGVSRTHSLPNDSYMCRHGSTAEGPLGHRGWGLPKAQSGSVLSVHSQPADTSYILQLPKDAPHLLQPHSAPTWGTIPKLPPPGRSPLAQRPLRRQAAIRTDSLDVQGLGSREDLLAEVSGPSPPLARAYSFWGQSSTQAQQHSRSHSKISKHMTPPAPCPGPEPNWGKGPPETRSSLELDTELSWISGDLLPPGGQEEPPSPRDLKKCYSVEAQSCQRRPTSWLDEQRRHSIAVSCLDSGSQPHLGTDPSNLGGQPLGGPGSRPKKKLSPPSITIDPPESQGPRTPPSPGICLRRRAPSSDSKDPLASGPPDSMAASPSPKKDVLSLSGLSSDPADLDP

SMILES	IC50 [1, 4] [nM]	IC50 [2, 5] [nM]	IC50 [2, 6] [nM]	further results
COc1ccc(C(c2ccc(OC)cc2)N2CCN(C(=O)CC(c3ccccc3)c3ccccc3)CC2)cc1 [Compound P19]	745	360	249	–
O=C(CC(c1ccccc1)c1ccccc1)N1CCN(C(c2ccccc2)c2ccc(Cl)cc2Cl)CC1 (centres unmarked) [P29 (HC1)]	–	> 1000	> 1000	–
COc1cc(C(c2ccccc2)N2CCN(C(=O)CC(c3ccccc3)c3ccccc3)CC2)cc(OC)c1O (centres unmarked) [Compound P21]	–	437	252	–
COc1cc(C(c2ccccc2)N2CCN(C(=O)CC(c3ccccc3)c3ccccc3)CC2)cc(OC)c1OC (centres unmarked) [Compound P25]	–	1090	513	–
O=C(CC(c1ccccc1)c1ccccc1)N1CCN(C(c2ccccc2)c2cccc(Cl)c2Cl)CC1 (centres unmarked) [Compound P15]	63	348	217	–
O=C(CC(c1ccccc1)c1ccccc1)N1CCN(C(c2ccccc2)c2c(Cl)cccc2Cl)CC1 (centres unmarked) [Compound P13]	< 1000	300	210	–
O=C(O)C1CN(C(c2ccccc2)c2ccccc2)CCN1C(=O)CC1c2ccccc2-c2ccccc21 (centres unmarked) [Compound P38]	699	200	160	IC50 [1, 7]: 181 nM
CC(C)(C)c1ccc(C(c2ccccc2)N2CCN(C(=O)CC(c3ccccc3)c3ccccc3)CC2)cc1 (centres unmarked) [Compound P11]	–	370	190	–
Cc1ccc(C(c2ccccc2)N2CCN(C(=O)CC(c3ccccc3)c3ccccc3)CC2)cc1 (centres unmarked) [Compound P23]	–	490	310	–
COc1ccc(C(c2ccc3c(c2)OCO3)N2CCN(C(=O)CC(c3ccccc3)c3ccccc3)CC2)cc1 (centres unmarked) [Compound P26]	–	710	533	–
O=C(CC(c1ccccc1)c1ccccc1)N1CCN(C(c2ccccc2)c2ccc(O)cc2)CC1 (centres unmarked) [Compound P49]	2700	340	320	IC50 [1, 7]: 835 nM
COc1cc(OC)cc(C(c2ccccc2)N2CCN(C(=O)CC(c3ccccc3)c3ccccc3)CC2)c1 (centres unmarked) [Compound P14]	–	320	210	–
O=C(CC(c1ccccc1)c1ccccc1)N1CCN(C2c3ccccc3-c3ccccc32)CC1 [Compound P31]	371	–	–	–
CC1CN(C(c2ccccc2)c2ccccc2)CCN1C(=O)CC(c1ccccc1)c1ccccc1 (centres unmarked) [Compound P37]	991	162	24	IC50 [1, 7]: 474 nM
O=C(CC(c1ccccc1)c1ccccc1)N1CCN(C(c2ccccc2)c2ccccc2OC(F)F)CC1 (centres unmarked) [Compound P12]	–	340	190	–
O=C(O)C1CN(C(c2ccccc2)c2ccccc2)CCN1C(=O)CC(c1ccccc1)c1ccccc1 (centres unmarked) [Compound P42]	–	1900	1490	IC50 [1, 7]: 1840 nM; Block of α1G T-type Channels IC50, 100 mV [1, 8]: no effect
O=C(CC(c1ccccc1)c1ccccc1)N1CCN(C2c3ccccc3S(=O)(=O)c3ccccc32)CC1 [Compound P27]	–	854	552	–

SMILES	IC50 [1, 4] [nM]	IC50 [2, 5] [nM]	IC50 [2, 6] [nM]	further results
O=C(CC(c1ccccc1)c1ccccc1)N1CCN(C2c3ccccc3CCc3ccccc32)CC1 [P32 (HC1)]	–	> 1000	830	–
O=C(CC(c1ccccc1)c1ccccc1)N1CCN(C(c2ccccc2)c2ccc(F)cc2)CC1 (centres unmarked) [Compound P24]	–	600	380	–
O=C(CC(c1ccccc1)c1ccccc1)N1CCN(C(c2ccccc2)c2cc(Cl)cc(Cl)c2)CC1 (centres unmarked) [Compound P9]	> 1000	230	170	–
COc1ccc(C(c2ccccc2)N2CCN(C(=O)CC(c3ccccc3)c3ccccc3)CC2)cc1 (centres unmarked) [Compound P20]	–	320	250	–
CCOC(=O)C1CN(C(c2ccccc2)c2ccccc2)CCN1C(=O)CC(c1ccccc1)c1ccccc1 (centres unmarked) [Compound P43]	2380	167	83	IC50 [1, 7]: 279 nM
O=C(CC(c1ccccc1)c1ccccc1)N1CCN(C(c2ccccc2)c2ccccc2)C(=O)C1 [Compound P34, 1-Benzhydryl-4-(3,3-diphenyl-propionyl)-piperazin-2-one]	–	737	680	–
O=C(CC(c1ccccc1)c1ccccc1)N1CCN(C(c2ccccc2)c2ccccc2C(F)(F)F)CC1 (centres unmarked) [Compound P22]	–	538	301	–
O=C(CC(c1ccccc1)c1ccccc1)N1CCN(C2c3ccccc3Oc3ccccc32)CC1 [Compound P16]	–	290	220	–
O=C(CN(c1ccccc1)c1ccccc1)N1CCN(C(c2ccccc2)c2cccc(Cl)c2Cl)CC1 (centres unmarked) [Compound P50]	–	–	–	Maximum Possible Effect ± SEM, Phase I [3]: 60 ± 7%; Maximum Possible Effect ± SEM, Phase II [3]: 63 ± 10%; Maximum Possible Effect ± SEM, Phase IIA [3]: 63 ± 13%
O=C(CC(c1ccccc1)c1ccccc1)N1CCN(C(c2ccccc2)c2cc(C(F)(F)F)cc(C(F)(F)F)c2)CC1 (centres unmarked) [P10 (HC1)]	–	300	190	–
O=C(CC(c1ccccc1)c1ccccc1)N1CCN(C(c2ccccc2)c2ccc(Cl)c(Cl)c2)CC1 (centres unmarked) [Compound P30]	> 1000	> 1000	> 1000	–
O=C(CC1c2ccccc2-c2ccccc21)N1CCN(C(c2ccccc2)c2ccccc2)CC1 [Compound P33]	404	–	–	–
CCOC(=O)C1CN(C(c2ccccc2)c2ccccc2)CCN1C(=O)CC(c1ccccc1)c1ccccc1 (centres unmarked) [Compound P41]	1010	420	390	IC50 [1, 7]: 363 nM
CCOC(=O)C1CN(C(c2ccccc2)c2ccccc2)CCN1C(=O)CC1c2ccccc2-c2ccccc21 (centres unmarked) [Compound P39]	2200	240	190	IC50 [1, 7]: 768 nM
N#CC1CN(C(c2ccccc2)c2ccccc2)CCN1C(=O)CC(c1ccccc1)c1ccccc1 (centres unmarked) [Compound P45]	10000	230	220	IC50 [1, 7]: 833 nM
O=C(CC(c1ccccc1)c1ccccc1)N1CCN(C(c2ccccc2)c2ccc(OCc3ccccc3)cc2)CC1 (centres unmarked) [Compound P17]	–	286	233	Block of α1G T-type Channels IC50, 100 mV [1, 8]: No effect
O=C(CC(c1ccccc1)c1ccccc1)N1CCN(C(c2ccccc2)c2cc(C(F)(F)F)cc(C(F)(F)F)c2)CC1 (centres unmarked) [Compound P10]	–	550	450	–
